Assay results taken from the NIST ThermoML archive (doi:10.1021/je049910c).
Values joined by “and” are separate entries in the source; they are usually repeats but may differ in a detail not shown here. Equal entries are not always repeated.

Assays:
[1] = Crystal; DTA
[2] = Molar enthalpy of transition or fusion; details: Crystal; DSC
[3] = molar heat capacity at constant pressure; details: 101.33 kPa, Liquid

[Br-].[Br-].[Br-].[Tb+3] [terbium tribromide]
Details	Molar enthalpy of transition or fusion [kcal/mol]	Normal melting temperature [°C]
[1]	–	830
[2]	8.94	–

[3]
Details	molar heat capacity at constant pressure
305 K	95.25 J/K/mol
310 K	96.04 J/K/mol
315 K	96.89 J/K/mol
320 K	96.99 J/K/mol
325 K	97.03 J/K/mol
330 K	96.84 J/K/mol
335 K	97.05 J/K/mol
340 K	97.06 J/K/mol
345 K	98.47 J/K/mol
350 K	98.03 J/K/mol
354 K	96.27 J/K/mol
359 K	96.56 J/K/mol
364 K	95.16 J/K/mol
369 K	95.49 J/K/mol
374 K	95.66 J/K/mol
379 K	94.73 J/K/mol
384 K	96.58 J/K/mol
389 K	94.78 J/K/mol
394 K	96.69 J/K/mol
399 K	97.48 J/K/mol
404 K	97.16 J/K/mol
409 K	97.43 J/K/mol
414 K	96.37 J/K/mol
419 K	97.26 J/K/mol
424 K	96.24 J/K/mol
429 K	97.6 J/K/mol
434 K	98.83 J/K/mol
439 K	98.92 J/K/mol
444 K	98.73 J/K/mol
449 K	100.77 J/K/mol
454 K	101.24 J/K/mol
459 K	102.68 J/K/mol
464 K	101.53 J/K/mol
469 K	101.69 J/K/mol
474 K	101.67 J/K/mol
479 K	101.42 J/K/mol
484 K	102.61 J/K/mol
489 K	102.5 J/K/mol
494 K	101.69 J/K/mol
499 K	102.17 J/K/mol
504 K	102.99 J/K/mol
509 K	102.18 J/K/mol
514 K	100.27 J/K/mol
519 K	96.88 J/K/mol
524 K	98.84 J/K/mol
529 K	97.84 J/K/mol
534 K	99.15 J/K/mol
539 K	97.79 J/K/mol
543 K	97.7 J/K/mol
548 K	97.62 J/K/mol
553 K	98.93 J/K/mol
558 K	98.58 J/K/mol
568 K	98.34 J/K/mol
573 K	98.95 J/K/mol
578 K	98.65 J/K/mol
583 K	99.14 J/K/mol
588 K	98.88 J/K/mol
593 K	100.12 J/K/mol
598 K	98.39 J/K/mol
603 K	99.23 J/K/mol
608 K	100.21 J/K/mol
613 K	99.21 J/K/mol
618 K	100.47 J/K/mol
623 K	100.62 J/K/mol
628 K	99.41 J/K/mol
633 K	99.03 J/K/mol
638 K	100.94 J/K/mol
643 K	100.9 J/K/mol
648 K	106.81 J/K/mol
653 K	99.85 J/K/mol and 102.18 J/K/mol
658 K	101.21 J/K/mol
663 K	102.1 J/K/mol
668 K	99.19 J/K/mol
673 K	98.9 J/K/mol
678 K	101.61 J/K/mol
683 K	98.15 J/K/mol
688 K	99.94 J/K/mol
693 K	98.07 J/K/mol
698 K	97.98 J/K/mol
703 K	96.7 J/K/mol
708 K	97.79 J/K/mol
713 K	99.85 J/K/mol
717 K	99.17 J/K/mol
722 K	99.02 J/K/mol
727 K	99.08 J/K/mol
732 K	99.98 J/K/mol
737 K	99.41 J/K/mol
742 K	101.93 J/K/mol
747 K	100.1 J/K/mol
752 K	104.88 J/K/mol
757 K	100.82 J/K/mol
762 K	101 J/K/mol
767 K	101.85 J/K/mol
772 K	102.41 J/K/mol
777 K	103.2 J/K/mol
782 K	102.71 J/K/mol
787 K	101.9 J/K/mol
792 K	101.02 J/K/mol
797 K	101.52 J/K/mol
802 K	101.51 J/K/mol
807 K	99.68 J/K/mol
812 K	103.05 J/K/mol
817 K	103.73 J/K/mol
822 K	102.94 J/K/mol
827 K	103.83 J/K/mol
832 K	99.83 J/K/mol
837 K	98.83 J/K/mol
842 K	101.98 J/K/mol
847 K	103.78 J/K/mol
852 K	103.32 J/K/mol
857 K	99.15 J/K/mol
862 K	102.98 J/K/mol
867 K	101.94 J/K/mol
872 K	105.24 J/K/mol
877 K	101.33 J/K/mol
882 K	103.27 J/K/mol
887 K	97.19 J/K/mol
892 K	97.82 J/K/mol
897 K	98.26 J/K/mol
902 K	101.94 J/K/mol
907 K	97.88 J/K/mol
911 K	97.43 J/K/mol
916 K	100.85 J/K/mol
921 K	97.21 J/K/mol
926 K	100.73 J/K/mol
931 K	95.04 J/K/mol
936 K	99.59 J/K/mol
941 K	98.67 J/K/mol
946 K	99.44 J/K/mol
951 K	102.23 J/K/mol
956 K	103.73 J/K/mol
961 K	99.7 J/K/mol
966 K	98.27 J/K/mol
971 K	101.79 J/K/mol
976 K	102.55 J/K/mol
981 K	97.92 J/K/mol
986 K	104.37 J/K/mol
991 K	100.42 J/K/mol
996 K	107.17 J/K/mol
1001 K	105.67 J/K/mol
1006 K	110.34 J/K/mol
1011 K	102.11 J/K/mol
1016 K	100.99 J/K/mol
1021 K	106.91 J/K/mol
1026 K	105.87 J/K/mol
1031 K	112.44 J/K/mol
1036 K	99.98 J/K/mol
1041 K	101.71 J/K/mol
1046 K	101.91 J/K/mol
1051 K	106.32 J/K/mol
1056 K	110.86 J/K/mol
1061 K	111.7 J/K/mol
